How the values were obtained:
[1] = test system: Wolbachia; test: Potency index, ratio IC50 for doxycycline to IC50 for compound for antibacterial activity against Wolbachia infected in insect cells; type: functional
[2] = test system: Wolbachia; test: Potency index, ratio IC50 for TylA to IC50 for compound for antibacterial activity against Wolbachia infected in insect cells; type: functional
[3] = test system: Wolbachia; test: Antibacterial activity against Wolbachia infected in insect cells; type: functional, organism-based

## CC[C@H]1OC(=O)C[C@@H](O)[C@H](C)[C@@H](O[C@@H]2O[C@H](C)[C@@H](O[C@H]3C[C@@](C)(O)[C@@H](OCc4ccc(F)cc4)[C@H](C)O3)[C@H](N(C)C)[C@H]2O)[C@@H](CC=O)C[C@@H](C)C(=O)/C=C/C(C)=C/[C@@H]1CO[C@@H]1O[C@H](C)[C@@H](O)[C@@H](OC)[C@H]1OC [FLUBENTYLOSIN]
[1]
  Ratio IC50: >1000
[2]
  Ratio IC50: >1000
[3]
  IC50: 20 pM

Reference: ChEMBL document CHEMBL4616690, “Assembling Pharma Resources to Tackle Diseases of Underserved Populations” (ACS Med Chem Lett, 2020)
